What was measured:
full-length PPARα = full-length PPARα (Homo sapiens, UniProt Q07869); conditions: PPRE luciferase reporter, HEK293 cells, Fig. 1C
[1] = tested on: human intestinal organoids; assay: intracellular triglyceride in human intestinal organoids; assay type: cell-based; conditions: organoids pretreated with 500 μM oleic acid 48 h, then 1 μM GW1516 or 30 μM fatty acids 24 h
full-length PPARδ = biological target: T1, full-length PPARδ (Homo sapiens, UniProt Q03181); assay: full-length PPARδ PPRE luciferase reporter assay in HEK293 cells; assay type: cell-based; conditions: Fig. 1C
T1 construct: expressed in transfected cells; host or cells: HEK293
T1 sequence (Q03181 1-441): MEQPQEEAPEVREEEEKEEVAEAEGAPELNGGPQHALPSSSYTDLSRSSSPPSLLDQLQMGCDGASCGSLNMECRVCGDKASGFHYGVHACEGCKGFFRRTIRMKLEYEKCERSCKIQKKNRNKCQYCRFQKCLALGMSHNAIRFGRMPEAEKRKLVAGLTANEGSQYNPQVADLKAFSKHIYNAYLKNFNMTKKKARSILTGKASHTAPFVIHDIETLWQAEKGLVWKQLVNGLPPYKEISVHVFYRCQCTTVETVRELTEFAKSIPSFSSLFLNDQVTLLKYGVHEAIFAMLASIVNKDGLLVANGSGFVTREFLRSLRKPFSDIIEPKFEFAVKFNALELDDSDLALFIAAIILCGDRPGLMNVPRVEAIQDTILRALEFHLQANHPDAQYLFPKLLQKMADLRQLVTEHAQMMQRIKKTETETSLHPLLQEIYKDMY
Excerpt: Luciferase activities were normalized to β-galactosidase activities.

VP16-PPARα / GAL4-SRC-1 = biological target: T2, VP16-PPARα / GAL4-SRC-1 (Homo sapiens, UniProt Q07869); assay: mammalian two-hybrid assay, VP16-PPARα and coactivator GAL4-SRC-1; assay type: cell-based; conditions: 30 μM fatty acids, 1 μM GW7647, HEK293 cells, Fig. 3B
T2 construct: expressed in transfected cells; host or cells: HEK293
T2 sequence (Q07869 1-468): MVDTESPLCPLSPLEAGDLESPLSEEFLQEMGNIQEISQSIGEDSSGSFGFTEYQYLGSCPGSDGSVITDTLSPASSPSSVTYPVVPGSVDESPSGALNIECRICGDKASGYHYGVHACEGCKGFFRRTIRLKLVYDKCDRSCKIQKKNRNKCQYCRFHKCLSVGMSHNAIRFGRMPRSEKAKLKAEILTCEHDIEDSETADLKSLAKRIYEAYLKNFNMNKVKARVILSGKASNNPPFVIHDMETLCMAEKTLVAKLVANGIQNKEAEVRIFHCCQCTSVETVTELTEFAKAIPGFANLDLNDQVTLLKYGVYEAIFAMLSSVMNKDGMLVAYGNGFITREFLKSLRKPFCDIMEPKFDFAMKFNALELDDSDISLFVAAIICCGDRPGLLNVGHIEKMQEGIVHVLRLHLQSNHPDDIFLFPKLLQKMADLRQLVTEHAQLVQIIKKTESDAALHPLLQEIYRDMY
T2 sequence (Q15788 595-771 partner limits assumed): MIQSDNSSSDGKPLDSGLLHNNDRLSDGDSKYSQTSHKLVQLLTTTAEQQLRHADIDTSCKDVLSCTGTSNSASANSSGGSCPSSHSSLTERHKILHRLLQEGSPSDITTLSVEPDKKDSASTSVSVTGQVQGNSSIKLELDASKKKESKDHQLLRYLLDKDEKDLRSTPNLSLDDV

[2] = tested on: human intestinal organoids; assay: fatty acid β-oxidation activity in living organoids (FAOBlue); assay type: cell-based; conditions: organoids pretreated with 500 μM oleic acid 48 h, then 1 μM GW1516 or 30 μM fatty acids 24 h
VP16-PPARα / GAL4-NCoR = biological target: T3, VP16-PPARα / GAL4-NCoR (Homo sapiens, UniProt Q07869); assay: mammalian two-hybrid assay, VP16-PPARα and corepressor NCoR; assay type: cell-based; conditions: 30 μM fatty acids, HEK293 cells, Fig. 3D
T3 construct: expressed in transfected cells; host or cells: HEK293
T3 sequence (Q07869 1-468): T2 sequence (Q07869 1-468)

[3] = tested on: human intestinal organoids; assay: PPARδ target gene mRNA expression in human intestinal organoids (RT-qPCR); assay type: cell-based; conditions: 1 μM GW1516 or 30 μM fatty acids for 24 h
VP16-PPARδ / GAL4-NCoR = biological target: T4, VP16-PPARδ / GAL4-NCoR (Homo sapiens, UniProt Q03181); assay: mammalian two-hybrid assay, VP16-PPARδ and corepressor NCoR; assay type: cell-based; conditions: 30 μM fatty acids, HEK293 cells, Fig. 3C
T4 construct: expressed in transfected cells; host or cells: HEK293
T4 sequence (Q03181 1-441): T1 sequence (Q03181 1-441)

transactivation of full-length PPARα (in words) (full-length PPARα)	transactivation of full-length PPARδ (in words) (full-length PPARδ)	recruitment of coactivator SRC-1 to PPARα (VP16-PPARα / GAL4-SRC-1)	interaction between PPARα and corepressor NCoR (VP16-PPARα / GAL4-NCoR)	interaction between PPARδ and corepressor NCoR (VP16-PPARδ / GAL4-NCoR)	Compound	intracellular triglyceride levels [1]	fatty acid β-oxidation activity [2]	expression of PPARδ target genes (CPT1A, HMGCS2, PDK4, ACSL1) [3]
activated almost equally	not	not	–	–	CCCCC/C=C\C/C=C\C/C=C\CCCCC(=O)O [GLA, γ-linolenic acid, reference compound]	not	not	–
–	activated PPARδ potently	induced coactivator-recruitment	reduced the interaction	reduced the interaction	CCCCCC(O)CCC=CCC=CCCCCC(=O)O (stereo not drawn) [γHYD, 13-hydroxy-cis-6,cis-9-octadecadienoic acid]	reduced intracellular triglyceride accumulation	enhanced fatty acid β-oxidation	increased the expression of PPARδ target genes
–	activated PPARδ potently	induced coactivator-recruitment	reduced the interaction	reduced the interaction	CCCCCC(=O)CCC=CCC=CCCCCC(=O)O [γKetoD, 13-oxo-cis-6,cis-9-octadecadienoic acid]	reduced intracellular triglyceride accumulation	enhanced fatty acid β-oxidation	increased the expression of PPARδ target genes

From publication PMC9636582 (The Journal of Biological Chemistry, 2022)
